Measured values: US20220227765A1, “PYRIDO-INDOLE ANALOGUES AS GPX4 INHIBITORS” (Ferro Therapeutics, Inc., priority 2019, published 2022)
Where two headings read alike, the source gives them in different places.

Tests used:
Assay type in all cases: cell-based, human
786-O = assay: Cell proliferation (Alamar Blue) assay, 786-O
Procedure: (§1) Cell viability assay was performed to assess the potency of the compounds in human cancer cell lines 786-0 (renal cell carcinoma) and SJSA-1 (osteosarcoma). Additional cell lines, such as pancreatic cancer cell lines (Panc 02.13, BxPC-3, Panc 12, Panc 02.03, Panc 6.03, PSN-1, HPAC, and Capan-1), prostate cancer cell lines (PC-3, DU145, 22Rv1, NCI-H660, BPH1, LNCaP, BM-1604, and MDA PCa 2b), etc., can be tested in a similar method.
(§2) Cells (SJSA-1, 786-0 and A431) were seeded (5000 cells/100 μL/well) in 96-well tissue culture plate and incubated at 37° C./5% CO2 for 16-24 hours. The cells were then treated with compounds (25 μL of 5×). The compound concentrations were 10-0.0005 μM prepared in 3-fold serial dilutions with final DMSO concentration of 1%. The plates were then incubated for 24 h at 37° C./5% CO2 in a moist environment. Then Alamar Blue™ reagent (final concentration 1×-12.5 μL) was added to each well and incubated for 1.5 hours at 37° C./5% CO2. The plates were read on fluorescence reader at 540 nm excitation and 590 nm emission wavelengths. The IC50 values were subsequently determined using a sigmoidal dose-response curve (variable slope) in GraphPad Prism® 5 software. Table A-3, Table B-3 and Table C-3 show cell proliferation data for certain compounds as described herein.

SJSA-1 = assay: Cell proliferation (Alamar Blue) assay, SJSA-1
Procedure: as §1, §2

A431 = assay: Cell proliferation (Alamar Blue) assay, A431
Procedure: as §1, §2

[1] = Homo sapiens, 786-0, 24 h, Table B-3, 786-O cells
[2] = Homo sapiens, SJSA-1, 24 h, Table B-3, head prints SJSB-1, 24 h, read-out: IC50 (μM) SJSB-1
[3] = Homo sapiens, A-431, 24 h, Table B-3, A431 cells
[4] = Homo sapiens, 786-0, 24 h, Table C-3, 786-O cells
[5] = Homo sapiens, SJSA-1, 24 h, Table C-3, SJSA-1 cells, 24 h, read-out: IC50 (μM) SJSA-1
[6] = Homo sapiens, A-431, 24 h, Table C-3, A431 cells
[7] = Homo sapiens, 786-0, 24 h, Table A-3, 786-O cells
[8] = Homo sapiens, SJSA-1, 24 h, Table A-3, SJSA-1 cells, 24 h, read-out: IC50 (μM) SJSA-1
[9] = Homo sapiens, A-431, 24 h, Table A-3, A431 cells

Structure (SMILES)	IC50 (786-O; [1])	IC50 (SJSA-1; [2])	IC50 (A431; [3])	other results
C#CC(=O)N1C(CCCC)Cc2c([nH]c3ccccc23)[C@H]1c1ccc(CNCC23CC4CC(CC(C4)C2)C3)cc1 (stereo partly drawn) [Compound B-45B]	0.005 µM	0.011 µM	1.7 µM	
C#CC(=O)N1[C@@H](CCCC)Cc2c([nH]c3c(F)cc(F)cc23)[C@@H]1c1ccc(N2CCN(C)CC2)c(C#N)c1 [Compound B-58]	0.135 µM	0.15 µM	> 10 µM	
C#CC(=O)N1[C@@H](CCCC)Cc2c([nH]c3c(F)cc(F)cc23)[C@@H]1C1CCC2(CC1)OCCO2 [Compound B-99]	0.207 µM	0.504 µM	> 10 µM	
C#CC(=O)N1[C@@H](CCCC)Cc2c([nH]c3ccccc23)[C@@H]1c1ccc(NC2CCCC2)cc1 [Compound B-68]	0.045 µM	0.0715 µM	> 10 µM	
C#CC(=O)N1[C@@H](CCCC)Cc2c([nH]c3ccccc23)[C@]1(C)c1ccc(F)cc1 [Compound C-11]				IC50 (786-O; [4]): 0.098 µM; IC50 (SJSA-1; [5]): 0.22 µM; IC50 (A431; [6]): > 10 µM
C#CC(=O)N1[C@@H](CCCC)Cc2c([nH]c3c(F)cc(F)cc23)[C@@H]1C1CCC(=O)CC1 [Compound B-76]	0.168 µM	0.247 µM	> 10 µM	
CCCC[C@H]1Cc2c([nH]c3ccccc23)[C@H](c2ccc(C(=O)NC34CC5CC(CC(C5)C3)C4)cc2)N1C(=O)CCl [Compound B-1, N-((1R,3R)-adamantan-1-yl)-4-((1S,3S)-3-butyl-2-(2-chloroacetyl)-2,3,4,9-tetrahydro-1H-pyrido[3,4-b]indol-1-yl)benzamide]	0.001 µM	0.003 µM	2.7 µM	
C#CC(=O)N1[C@@H](CCCC)Cc2c([nH]c3ccccc23)[C@@H]1c1ccc(N2CCC3(COC3)C2)cc1 [Compound B-69, 1-((1S,3S)-1-(4-(2-oxa-6-azaspiro[3.4]octan-6-yl)phenyl)-3-butyl-1,3,4,9-tetrahydro-2H-pyrido[3,4-b]indol-2-yl)prop-2-yn-1-one]	0.047 µM	0.036 µM	> 1 µM	
C#CC(=O)N1[C@@H](CCCC)Cc2c(n(C)c3ccccc23)[C@@H]1c1ccc(NC23CC4CC(CC(C4)C2)C3)cc1 [Compound B-70, 1-((1S,3S)-1-(4-(((1R,3R,5S)-adamantan-1-yl)amino)phenyl)-3-butyl-9-methyl-1,3,4,9-tetrahydro-2H-pyrido[3,4-b]indol-2-yl)prop-2-yn-1-one]	0.0165 µM	0.066 µM	4.76 µM	
C#CC(=O)N1[C@@H](CCCC)Cc2c([nH]c3ccccc23)[C@@H]1C12CC3CC(CC(C3)C1)C2 [Compound B-94]	1.06 µM	1.37 µM	> 10 µM	
C#CC(=O)N1[C@@H](CCCC)Cc2c([nH]c3ccccc23)[C@@H]1c1ccc(NC2CCC2)cc1 [Compound B-4, 1-((1S,3S)-3-butyl-1-(4-(cyclobutylamino)phenyl)-1,3,4,9-tetrahydro-2H-pyrido[3,4-b]indol-2-yl)prop-2-yn-1-one]	0.008 µM	0.015 µM	5.9 µM	
C#CC(=O)N1[C@@H](CCCC)Cc2c([nH]c3ccccc23)[C@@H]1c1ccc(C(=O)NCCn2ccnc2)cc1 [Compound B-19]	0.367 µM	0.294 µM	> 10 µM	
CCCC[C@H]1Cc2c([nH]c3c(F)cc(F)cc23)[C@H](c2ccc(N)cc2)N1C(=O)CCl [Compound B-85]	0.012 µM	0.024 µM	> 10 µM	
C#CC(=O)N1[C@@H](CCCC)Cc2c([nH]c3ncccc23)[C@@H]1c1ccc(NC23CC4CC(CC(C4)C2)C3)cc1 [Compound A-7]				IC50 (786-O; [7]): 0.034 µM; IC50 (SJSA-1; [8]): 0.058 µM; IC50 (A431; [9]): 4.88 µM
C#CC(=O)N1[C@@H](CCCC)Cc2c([nH]c3ccccc23)[C@@H]1c1ccc(NC(=O)c2ccncc2)cc1 [Compound B-15]	0.013 µM	0.029 µM	> 10 µM	
C#CC(=O)N1[C@@H](CCCC)Cc2c([nH]c3ccccc23)[C@@H]1c1ccc(C(=O)NC23CC4CC(CC(C4)C2)C3)cc1 [Compound B-7, N-((3R,5R,7R)-adamantan-1-yl)-4-((1S,3S)-3-butyl-2-propioloyl-2,3,4,9-tetrahydro-1H-pyrido[3,4-b]indol-1-yl)benzamide]	0.002 µM	0.002 µM	5.5 µM	
C#CC(=O)N1[C@@H](CCCC)Cc2c([nH]c3c(F)cc(F)cc23)[C@@H]1CCCCCCCC [Compound C-21]				IC50 (786-O; [4]): 0.07 µM; IC50 (SJSA-1; [5]): 0.08 µM; IC50 (A431; [6]): 9.4 µM
C#CC(=O)N1[C@@H](CCCC)Cc2c([nH]c3ccc(F)cc23)[C@@H]1c1ccc(NC23CC4CC(CC(C4)C2)C3)cc1 [Compound B-64]	0.008 µM	0.012 µM	4.45 µM	
C#CC(=O)N1[C@@H](CCCC)Cc2c([nH]c3ncccc23)[C@@H]1c1ccc(F)cc1 [Compound A-3]				IC50 (786-O; [7]): 0.017 µM; IC50 (SJSA-1; [8]): 0.017 µM; IC50 (A431; [9]): 8.36 µM

Structure (SMILES)	IC50 (786-O; [1])	IC50 (SJSA-1; [2])	IC50 (A431; [3])	other results
C#CC(=O)N1[C@@H](CCCC)Cc2c([nH]c3ccccc23)[C@@H]1c1ccc(NC2CCS(=O)(=O)CC2)cc1 [Compound B-13]	0.013 µM	0.018 µM	7.2 µM	
C#CC(=O)N1[C@@H](CCCC)Cc2c(n(CC#N)c3c(F)cc(F)cc23)[C@@H]1c1ccc(NC(=O)OCCCCC)cc1 [Compound B-97]	0.071 µM	0.0455 µM	6.35 µM	
C#CC(=O)N1[C@@H](CCCC)Cc2c([nH]c3c(F)cc(F)cc23)[C@@H]1CCC [Compound B-73]	0.14 µM	0.22 µM	> 10 µM	
C#CC(=O)N1[C@@H](CCCC)Cc2c([nH]c3c(F)cc(F)cc23)[C@@H]1C(C)C [Compound B-72]	0.222 µM	0.223 µM	> 10 µM	
C#CC(=O)N1C(CCCC)Cc2c([nH]c3ccccc23)[C@@H]1c1ccc(CNCC23CC4CC(CC(C4)C2)C3)cc1 (stereo partly drawn) [Compound B-45A]	0.0002 µM	0.001 µM	3.8 µM	
C#CC(=O)N1[C@@H](CCCC)Cc2c([nH]c3c(F)cc(F)cc23)[C@@H]1COCCOC [Compound C-7]				IC50 (786-O; [4]): 0.043 µM; IC50 (SJSA-1; [5]): 0.093 µM; IC50 (A431; [6]): 6.8 µM
C#CC(=O)N1C(CCCC)Cc2c([nH]c3ccccc23)[C@@H]1c1ccc(C(O)CO)cc1 (stereo partly drawn) [Compound B-95]	0.32 µM	0.74 µM	> 10 µM	
C#CC(=O)N1[C@@H](CCCC)Cc2c([nH]c3ccccc23)[C@@H]1c1ccc(NC2CCCCC2)cc1 [Compound B-71]	0.042 µM	0.056 µM	> 10 µM	
C#CC(=O)N1C(c2ccn(-c3ccc(F)cc3)n2)c2[nH]c3ccccc3c2C[C@@H]1CCCC (stereo partly drawn) [Compound B-62]	0.029 µM	0.021 µM	6.4 µM	
C#CC(=O)N1[C@@H](CCCC)Cc2c([nH]c3ccccc23)[C@@H]1c1ccc(NC23CC4CC(CC(C4)C2)C3)cc1 [Compound B-17]				IC50 (786-O; Table B-3, 786-O cells, 24 h): 0.006 µM; IC50 (SJSA-1; Table B-3, head prints SJSB-1, 24 h, read-out: IC50 (μM) SJSB-1): 0.008 µM; IC50 (A431; Table B-3, A431 cells, 24 h): 3.6 µM
C#CC(=O)N1[C@@H](CCCC)Cc2c([nH]c3c(F)cc(F)cc23)[C@@H]1CCC [Compound C-3]				IC50 (786-O; [4]): 0.14 µM; IC50 (SJSA-1; [5]): 0.22 µM; IC50 (A431; [6]): > 10 µM
C#CC(=O)N1[C@@H](CCCC)Cc2c([nH]c3c(F)cc(F)cc23)[C@@H]1CC(C)C [Compound C-5]				IC50 (786-O; [4]): 0.22 µM; IC50 (SJSA-1; [5]): 0.22 µM; IC50 (A431; [6]): > 10 µM
CCCCCOC(=O)NC12CC([C@H]3c4[nH]c5c(F)cc(F)cc5c4C[C@H](CCCC)N3C(=O)CCl)(C1)C2 [Compound B-90]	0.013 µM	0.03 µM	> 10 µM	
C#CC(=O)N1C(c2ccn(C34CC5CC(CC(C5)C3)C4)n2)c2[nH]c3ccccc3c2C[C@@H]1CCCC (stereo partly drawn) [Compound B-63]	0.061 µM	0.059 µM	5.8 µM	
C#CC(=O)N1[C@@H](CCCC)Cc2c([nH]c3c(F)cc(F)cc23)[C@@H]1CCCCCCCCCCCCCCC [Compound C-6]				IC50 (786-O; [4]): > 10 µM; IC50 (SJSA-1; [5]): > 10 µM; IC50 (A431; [6]): > 10 µM
CCCCCOC(=O)Nc1ccc([C@H]2c3[nH]c4c(F)cc(F)cc4c3C[C@H](CCCC)N2C(=O)CCl)cc1 [Compound B-89]	0.008 µM	0.002 µM	> 10 µM	
C[C@H]1Cc2c([nH]c3ncccc23)[C@H](c2ccc(F)cc2)N1C(=O)CCl [Compound A-1]				IC50 (786-O; [7]): 0.03 µM; IC50 (SJSA-1; [8]): 0.145 µM; IC50 (A431; [9]): > 10 µM
C[C@H]1Cc2c([nH]c3ncccc23)[C@@H](c2ccc(F)cc2)N1C(=O)CCl [Compound A-2]				IC50 (786-O; [7]): 3.52 µM; IC50 (SJSA-1; [8]): 9.11 µM; IC50 (A431; [9]): 7.06 µM
